Where a chain is given by its changes, count along the chain named. Names and notes keep the numbering of the source.
B1: BmrA E504A mutant (Bacillus subtilis multidrug ABC exporter, homodimeric) (natural protein)
chain: MPTKKQKSKSKLKPFFALVRRTNPSYGKLAFALALSVVTTLVSLLIPLLTKQLVDGFSMSNLSGTQIGLIALVFFVQAGLSAYATYALNYNGQKIISGLRELLWKKLIKLPVSYFDTNASGETVSRVTNDTMVVKELITTHISGFITGIISVIGSLTILFIMNWKLTLLVLVVVPLAALILVPIGRKMFSISRETQDETARFTGLLNQILPEIRLVKASNAEDVEYGRGKMGISSLFKLGVREAKVQSLVGPLISLVLMAALVAVIGYGGMQVSSGELTAGALVAFILYLFQIIMPMGQITTFFTQLQKSIGATERMIEILAEEEEDTVTGKQIENAHLPIQLDRVSFGYKPDQLILKEVSAVIEAGKVTAIVGPSGGGKTTLFKLLERFYSPTAGTIRLGDEPVDTYSLESWREHIGYVSQESPLMSGTIRENICYGLERDVTDAEIEKAAEMAYALNFIKELPNQFDTEVGERGIMLSGGQRQRIAIARALLRNPSILMLDAATSSLDSQSEKSVQQALEVLMEGRTTIVIAHRLSTVVDADQLLFVEKGEITGRGTHHELMASHGLYRDFAEQQLKMNADLENKAG

How the values were obtained:
BmrA [1] = biological target: T1, BmrA (Bacillus subtilis, UniProt O06967, E504A); assay: cryo-EM structure; assay type: binding
T1 sequence (O06967 1-589 E504A): B1 chain with A504E

BmrA [2] = biological target: T2, BmrA (Bacillus subtilis, UniProt O06967); assay: intrinsic fluorescence binding, purified WT BmrA in DDM
T2 sequence (O06967 1-589): B1 chain with A504E

crystal structure = biological target: the molecule itself; assay: crystal structure

Molecule	Kd (BmrA [1]) [µM]	Kd (BmrA [2]) [µM]	binding result (crystal structure)
CC/N=c1\cc2oc3cc(NCC)c(C)cc3c(-c3ccccc3C(=O)OCC)c-2cc1C [R6G]	3.3 ± 0.7	4.8 ± 0.9	–
B1	–	–	binds

From publication PMC8791611 (Science Advances, 2022)
